Experimental data taken from PubChem BioAssay AID330 (DTP/NCI, 2004).
Where “and” joins values, the source holds several entries; their conditions need not be identical. Equal entries are not always repeated. Inconclusive results and toxic doses are left out.

Test system: P388 leukemia ip, CD2F1 mice, survival T/C
Test: NCI In Vivo Anticancer Drug Screen. Data for tumor model P388 Leukemia (intraperitoneal) in CD2F1 (CDF1) mice
Conditions: endpoint: median survival time, higher = longer survival
Procedure, shortened: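 Mice carrying the transplanted tumor received test compound or vehicle. Survival was recorded in each group, and the value is the treated-group measurement divided by that of the vehicle-treated control group.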

[1] = dose: 25.0 mg/kg/injection, schedule: Q01DX005 (ip), vehicle: Klucel (hydroxypropylcellulose) (HPC)
[2] = dose: 50.0 mg/kg/injection, schedule: Q01DX005 (ip), vehicle: Klucel (hydroxypropylcellulose) (HPC)
[3] = dose: 100.0 mg/kg/injection, schedule: Q04DX003 (ip), vehicle: saline with Tween-80
[4] = dose: 200.0 mg/kg/injection, schedule: Q04DX003 (ip), vehicle: saline with Tween-80
[5] = dose: 50.0 mg/kg/injection, schedule: Q04DX003 (ip), vehicle: saline with Tween-80
[6] = dose: 100.0 mg/kg/injection, schedule: Q01DX005 (ip), vehicle: Klucel (hydroxypropylcellulose) (HPC)
[7] = dose: 200.0 mg/kg/injection, schedule: Q01DX005 (ip), vehicle: Klucel (hydroxypropylcellulose) (HPC)
[8] = dose: 60.0 mg/kg/injection, schedule: Q01DX005 (ip), vehicle: saline with Tween-80
[9] = dose: 120.0 mg/kg/injection, schedule: Q01DX005 (ip), vehicle: saline with Tween-80
[10] = dose: 240.0 mg/kg/injection, schedule: Q01DX005 (ip), vehicle: saline with Tween-80
[11] = dose: 25.0 mg/kg/injection, schedule: Q01DX009 (ip), vehicle: saline with Tween-80
[12] = dose: 50.0 mg/kg/injection, schedule: Q01DX009 (ip), vehicle: saline with Tween-80
[13] = dose: 100.0 mg/kg/injection, schedule: Q01DX009 (ip), vehicle: saline with Tween-80

For `CCOC(=O)C(CC(C)C)NC(=O)C(Cc1ccc(N(CCCl)CCCl)cc1)NC(C)=O` (configuration not stated), the T/C (dose: 0.25 mg/kg/injection, schedule: Q01DX009 (ip), vehicle: saline) was 101 % of control, the T/C (dose: 0.5 mg/kg/injection, schedule: Q01DX009 (ip), vehicle: saline) was 115 % of control and the T/C (dose: 1.0 mg/kg/injection, schedule: Q01DX009 (ip), vehicle: saline) was 111 % of control. For the same compound, the T/C (dose: 2.0 mg/kg/injection, schedule: Q01DX009 (ip), vehicle: Klucel (hydroxypropylcellulose) (HPC)) was 109 % of control, the T/C (dose: 2.0 mg/kg/injection, schedule: Q01DX009 (ip), vehicle: olive oil, sesame oil, peanut oil) was 111 % of control and the T/C (dose: 2.0 mg/kg/injection, schedule: Q01DX009 (ip), vehicle: saline with Tween-80) was 100 % of control. The T/C (dose: 4.0 mg/kg/injection, schedule: Q01DX009 (ip), vehicle: Klucel (hydroxypropylcellulose) (HPC)) was 110 % of control, the T/C (dose: 4.0 mg/kg/injection, schedule: Q01DX009 (ip), vehicle: olive oil, sesame oil, peanut oil) was 120 % of control and the T/C (dose: 4.0 mg/kg/injection, schedule: Q01DX009 (ip), vehicle: saline with Tween-80) was 100 % of control. For the same compound, the T/C (dose: 8.0 mg/kg/injection, schedule: Q01DX009 (ip), vehicle: Klucel (hydroxypropylcellulose) (HPC)) was 120 % of control, the T/C (dose: 8.0 mg/kg/injection, schedule: Q01DX009 (ip), vehicle: saline with Tween-80) was 109 % of control and the T/C (dose: 8.0 mg/kg/injection, schedule: Q01DX009 (ip), vehicle: saline) was 163 % of control. For the same compound, the T/C (dose: 12.5 mg/kg/injection, schedule: Q01DX005 (iv), vehicle: Klucel (hydroxypropylcellulose) (HPC)) was 116 % of control, the T/C (dose: 16.0 mg/kg/injection, schedule: Q01DX009 (ip), vehicle: saline with Tween-80) was 111 % of control and the T/C (dose: 16.0 mg/kg/injection, schedule: Q01DX009 (ip), vehicle: saline) was 163 % of control and 225 % of control. For the same compound, the T/C (dose: 16.0 mg/kg/injection, schedule: Q04DX003 (ip), vehicle: saline with Tween-80) was 152 % of control, the T/C (dose: 18.9 mg/kg/injection, schedule: Q04DX003 (ip), vehicle: saline with Tween-80) was 152 % of control and the T/C [1] was 174 % of control. The T/C (dose: 28.4 mg/kg/injection, schedule: Q04DX003 (ip), vehicle: saline with Tween-80) was 161 % of control, the T/C (dose: 32.0 mg/kg/injection, schedule: Q01DX009 (ip), vehicle: Klucel (hydroxypropylcellulose) (HPC)) was 172 % of control and the T/C (dose: 32.0 mg/kg/injection, schedule: Q01DX009 (ip), vehicle: olive oil, sesame oil, peanut oil) was 175 % of control. For the same compound, the T/C (dose: 32.0 mg/kg/injection, schedule: Q01DX009 (ip), vehicle: saline with Tween-80) was 117 % of control, the T/C (dose: 32.0 mg/kg/injection, schedule: Q04DX003 (ip), vehicle: saline with Tween-80) was 189 % of control and the T/C (dose: 42.6 mg/kg/injection, schedule: Q04DX003 (ip), vehicle: saline with Tween-80) was 172 % of control. For the same compound, the T/C [2] was 230 % of control, the T/C (dose: 50.0 mg/kg/injection, schedule: Q01DX005 (iv), vehicle: Klucel (hydroxypropylcellulose) (HPC)) was 156 % of control and the T/C (dose: 64.0 mg/kg/injection, schedule: Q01DX009 (ip), vehicle: Klucel (hydroxypropylcellulose) (HPC)) was 151 % of control. For the same compound, the T/C (dose: 64.0 mg/kg/injection, schedule: Q04DX003 (ip), vehicle: saline with Tween-80) was 188 % of control and 211 % of control, the T/C (dose: 96.0 mg/kg/injection, schedule: Q04DX003 (ip), vehicle: saline with Tween-80) was 170 % of control and the T/C (dose: 128.0 mg/kg/injection, schedule: Q01DX009 (ip), vehicle: saline with Tween-80) was 152 % of control. The T/C (dose: 256.0 mg/kg/injection, schedule: Q01DX009 (ip), vehicle: other) was 151 % of control, the T/C (dose: 256.0 mg/kg/injection, schedule: Q01DX009 (ip), vehicle: saline with Tween-80) was 152 % of control and 157 % of control and the T/C (dose: 512.0 mg/kg/injection, schedule: Q01DX009 (ip), vehicle: other) was 179 % of control. The T/C (dose: 512.0 mg/kg/injection, schedule: Q01DX009 (ip), vehicle: saline with Tween-80) was 185 % of control.

`CC(C)(C)SC(=O)C1CC1` was tested, and the T/C [3] was 111 % of control and the T/C [4] was 102 % of control.

For `O=[N+]([O-])c1cc2[nH]cnc2c([N+](=O)[O-])c1N1CCOCC1`, the T/C (dose: 25.0 mg/kg/injection, schedule: Q04DX003 (ip), vehicle: saline with Tween-80) was 100 % of control, the T/C [5] was 104 % of control and the T/C [3] was 97 % of control.

`CC1=C(/C=C/C(C)=C/C=C/C(C)=C/C(=O)O)C(C)(C)CCC1` was tested, and the T/C (dose: 32.0 mg/kg/injection, schedule: Q01DX005 (ip), vehicle: saline with Tween-80) was 119 % of control, the T/C (dose: 64.0 mg/kg/injection, schedule: Q01DX005 (ip), vehicle: saline with Tween-80) was 111 % of control and the T/C [3] was 105 % of control. The T/C (dose: 128.0 mg/kg/injection, schedule: Q01DX005 (ip), vehicle: saline with Tween-80) was 103 % of control and the T/C [4] was 115 % of control.

`CC(C)(C)[Si]1(C(C)(C)C)N([Si](C)(C)C)N1[Si](C)(C)C` (configuration not stated) was tested, and the T/C (dose: 60.0 mg/kg/injection, schedule: Q01DX005 (ip), vehicle: saline) was 106 % of control, the T/C (dose: 120.0 mg/kg/injection, schedule: Q01DX005 (ip), vehicle: saline) was 100 % of control and the T/C (dose: 240.0 mg/kg/injection, schedule: Q01DX005 (ip), vehicle: saline) was 105 % of control.

In the case of `CCN(CC)CCOC(=O)c1cc2cc3cc(C(=O)OCCN(CC)CC)c(=O)oc3c(C)c2oc1=O`, the T/C (dose: 50.0 mg/kg/injection, schedule: Q01DX005 (ip), vehicle: saline) is reported as 113 % of control, the T/C (dose: 100.0 mg/kg/injection, schedule: Q01DX005 (ip), vehicle: saline) is reported as 114 % of control and the T/C (dose: 200.0 mg/kg/injection, schedule: Q01DX005 (ip), vehicle: saline) is reported as 107 % of control.

`N#Cc1ccc(-c2nn[nH]n2)cc1` was tested, and the T/C [2] was 102 % of control, the T/C [6] was 95 % of control and the T/C [7] was 96 % of control.

`COc1cc(/C=C2\C(=O)C=C(C)CC2(C)C)ccc1O` was tested, and the T/C [5] was 95 % of control and the T/C [3] was 90 % of control.

For `CCOC(=O)/N=C1\SC2(CC(C)=C(C)CS2=O)C(O)=C1C(=O)OCC` (configuration not stated), the T/C [8] was 101 % of control, the T/C [9] was 100 % of control and the T/C [10] was 101 % of control.

In the case of `O=C1c2ccccc2C(=O)N1CBr`, the T/C (dose: 12.5 mg/kg/injection, schedule: Q01DX009 (ip), vehicle: saline with Tween-80) is reported as 109 % of control, the T/C [11] is reported as 104 % of control and the T/C [12] is reported as 100 % of control.

For `O=c1[nH]c2cc(Cl)ccc2nc1/C=C(\O)c1ccc([N+](=O)[O-])cc1`, the T/C (dose: 60.0 mg/kg/injection, schedule: Q01DX005 (ip), vehicle: Klucel (hydroxypropylcellulose) (HPC)) was 101 % of control, the T/C (dose: 120.0 mg/kg/injection, schedule: Q01DX005 (ip), vehicle: Klucel (hydroxypropylcellulose) (HPC)) was 96 % of control and the T/C (dose: 240.0 mg/kg/injection, schedule: Q01DX005 (ip), vehicle: Klucel (hydroxypropylcellulose) (HPC)) was 89 % of control.

`c1ccc(-c2nc3ccccc3n2CCc2ccncc2)nc1` was tested, and the T/C [2] was 107 % of control and the T/C [6] was 104 % of control.

In the case of `C/C(=N\NC(=S)N1CCCC1)c1ncccn1`, the T/C (dose: 12.5 mg/kg/injection, schedule: Q04DX003 (ip), vehicle: Klucel (hydroxypropylcellulose) (HPC)) is reported as 108 % of control, the T/C (dose: 25.0 mg/kg/injection, schedule: Q04DX003 (ip), vehicle: Klucel (hydroxypropylcellulose) (HPC)) is reported as 108 % of control and the T/C (dose: 50.0 mg/kg/injection, schedule: Q04DX003 (ip), vehicle: Klucel (hydroxypropylcellulose) (HPC)) is reported as 112 % of control.

`COc1cc2c(cc1OC)C1C(O)C(OC)C=C3CCN(C2)C31` (configuration not stated) was tested, and the T/C [11] was 114 % of control, the T/C [12] was 114 % of control and the T/C (dose: 50.0 mg/kg/injection, schedule: Q01DX009 (ip), vehicle: saline) was 93 % of control. The T/C [13] was 118 % of control, the T/C (dose: 100.0 mg/kg/injection, schedule: Q01DX009 (ip), vehicle: saline) was 119 % of control and the T/C (dose: 200.0 mg/kg/injection, schedule: Q01DX009 (ip), vehicle: saline) was 102 % of control.

For `COc1ccc(NC(=O)C/C(C)=C2/C(=O)NN(c3ccccc3)C2=O)cc1`, the T/C [8] was 104 % of control, the T/C [9] was 97 % of control and the T/C [10] was 92 % of control.

With `CCCCC(C)(C(=O)OCC)C(=O)OCC` the T/C (dose: 12.5 mg/kg/injection, schedule: Q01DX005 (ip), vehicle: Klucel (hydroxypropylcellulose) (HPC)) was 105 % of control, the T/C [1] was 105 % of control and the T/C [2] was 105 % of control. The T/C [6] was 105 % of control, the T/C [7] was 111 % of control and the T/C (dose: 400.0 mg/kg/injection, schedule: Q01DX005 (ip), vehicle: Klucel (hydroxypropylcellulose) (HPC)) was 105 % of control.

For `NC1=NC2(CS1)CSC(N)=N2`, the T/C [12] was 94 % of control, the T/C [13] was 113 % of control and the T/C (dose: 200.0 mg/kg/injection, schedule: Q01DX009 (ip), vehicle: saline with Tween-80) was 90 % of control.
